Counter-ions that a name gives are not always drawn.
Columns and labels:
[1] = tested on: ddY male mice, reserpine-induced immobility; experiment: Activity on reserpine-induced immobility (open-field method); assay type: in vivo, mouse; details: reserpine 2 mg/kg, total of 1-min counts at 15, 30, 45, 60 min, ***p < 0.001
Method: Reserpine was administered intraperitoneally to ddY male mice (4 week old) at a dose of 2 mg/kg, and, after 18 to 20 hours, the test compound was administered intraperitoneally to the mice. Thereafter, the ambulation (the number of times of the animal crossed the demarcation line) of the mice was counted for a period of 1 minute at 15, 30, 45 and 60 minutes after the administration of the test compound, respectively, according to the open-field method. The total number of ambulation determined at 4 times in each mouse and compared with that of the control.

[2] = tested on: Rats with unilateral 6-hydroxydopamine lesion of the substantia nigra; experiment: Rotational activity in rats with unilateral 6-hydroxydopamine lesion of the substantia nigra; assay type: in vivo, rat
Method: Rats under pentobarbital sodium anesthesia (50 mg/kg, i.p.) were fixed on an apparatus for fixing brain, and 6-hydroxydopamine (8 μg/4 μl) was injected in the substantia nigra (A:3.0, L:2.6, D:7.8) according to Pellegrino & Cushman's atlas. Seven days after the injection of 6-hydroxydopamine, apomorphine was administered subcutaneously at a dose of 0.25 mg/kg, and the rats showing […] rotating movement to one side opposite to the destroyed side were selected. After 7 days, the test compound was administered intraperitoneally and, thereafter, rotating movement of the rats was observed over 1 minute at an interval of 5 minutes during a period of 60 minutes.

[3] = J. Affect. Disord., Vol. 1, 173 (1979); cited from earlier work
[4] = tested on: unanesthetized spontaneously hypertensive rats; experiment: Anti-hypertensive activity, systolic blood pressure, tail cuff method; assay type: in vivo, rat; details: 10 mg/kg oral
Method: (§1) The anti-hypertensive activity of the compounds was determined by the tail cuff method using unanesthetized spontaneously hypertensive rats weighing 300 to 350 g (21 to 25 week old). In this experiment, the systolic blood pressure was determined by the bloodless method using a hemodynamometer. The heart rate was determined simultaneously using a sphygmometer connected to the pulse output. After rats were placed under condition of 40° C. for 10 minutes, the blood pressure was determined by holding the rats in a holder. The test compounds were suspended in a 0.5 wt% aqueous gum arabic. Hydralazine hydrochloride used as a comparative agent was administered as an aqueous solution thereof. The volume of oral administration was 0.5 ml per 100 g of body weight.

[5] = tested on: unanesthetized spontaneously hypertensive rats; experiment: Heart rate determined simultaneously with blood pressure (sphygmometer connected to the pulse output); assay type: in vivo, rat; details: for Changes in Heart Rate: 10 mg/kg oral
Method: as §1

[6] = tested on: Rats, pylorus portion ligated (gastric secretion); experiment: Gastric secretion inhibitory activity in pylorus-ligated rats; assay type: in vivo, rat; details: 10 mg/kg into the duodenum, 6 hours
Method: Rats weighing 200 to 250 g (8 rats per group) which have been fasting for 24 hours before testing were subjected to abdominal section under ether anesthesia, and the pylorus portion was ligated. Immediately after ligation, the test compound was administered into the duodenum as a suspension in a 5 wt% aqueous gum arabic at a volume of 2 ml/kg. The rats were sacrificed after 6 hours, and the stomach was extracted. The gastric juice was collected to determine the volume thereof, and the acidity of the gastic juice was titrated to a pH 7.0 with a 0.02N aqueous sodium hydroxide solution using a pH meter. The acid secretion amount per 6 hours (μEq/6 h) was calculated by (volume of gastric juice×acidity of gastric juice).

[7] = tested on: Donryu male rats, indomethacin ulcer; experiment: Anti-ulcer activity, indomethacin-induced ulcer; assay type: in vivo, rat; details: 10 mg/kg oral, indomethacin 25 mg/kg
Method: The test compound was administered orally to Donryu male rats weighing 240 to 300 g (7 rats per group) which have been fasting for 24 hours before testing, and, after 30 minutes, indomethacin was administered orally to the rats at a dose of 25 mg/kg. The rats were then maintained for 7 hours without feeding water and foods and then sacrificed. The stomach was extracted and fixed by infusing 7.5 ml of a 2% formalin solution into the stomach. The stomach was incised along the greater curvature thereof, and length (mm) of each ulcer generated in gastric glands was determined. The total length of the ulcer per rat was expressed in terms of an ulcer index.
In this experiment, the test compound was suspended in a 0.5% aqueous gum arabic and administered at a volume of 5 ml/kg. Indomethacin (manufacturedby Sigma Co., Ltd.) was administered as a 0.5 wt% aqueous suspension in sodium carboxymethyl cellulose at a volume of 5 ml/kg. As a control, a 0.5 wt% suspension of aqueous gum arabic was orally administered at a volume of 5 ml/kg.

[8] = tested on: ddY male mice, KCN-induced anoxia; experiment: Activity on KCN-induced anoxia in mice; assay type: in vivo, mouse
human = details: in human, side-effect; cited from earlier work

Compound	Ambulation ([1]; 10 mg/kg i.p., n = 6)	Changes in Systolic Blood Pressure ([4]; 1 hr after administration)	Changes in Systolic Blood Pressure ([4]; 2 hrs after administration)	Changes in Systolic Blood Pressure ([4]; 4 hrs after administration)	Changes in Systolic Blood Pressure ([4]; 6 hrs after administration)	Changes in Systolic Blood Pressure ([4]; 24 hrs after administration)	Changes in Heart Rate ([5]; 1 hr after administration)	Changes in Heart Rate ([5]; 2 hrs after administration)	Changes in Heart Rate ([5]; 4 hrs after administration)	Changes in Heart Rate ([5]; 6 hrs after administration)	Changes in Heart Rate ([5]; 24 hrs after administration)	also measured
CN1CCc2cccc3c2[C@H]1Cc1ccc(O)c(O)c1-3 [Apomorphine Hydrochloride, reference compound]												Ambulation ([1]; 3 mg/kg i.p., n = 10): 71.0 ± 7.0; Number of Rotating Movement over 60 min. ([2]; 0.5 mg/kg i.p.): 147
CC(C)C[C@H]1C(=O)N2CCC[C@H]2[C@]2(O)O[C@](NC(=O)[C@@H]3C=C4c5cccc6[nH]c(Br)c(c56)C[C@H]4N(C)C3)(C(C)C)C(=O)N12 [Bromocriptine Methanesulfonate]	36.7 ± 12.3											Anti-depressive activity (known) [3]: has been known to have an anti-depressive activity
CN1C[C@H](CN2CCOC2=O)C[C@@H]2c3cccc4[nH]cc(c34)C[C@H]21 [Example 2, 3-(6-Methylergolin-8β-ylmethyl)oxazolidin-2-one]		-64 Δ mmHg	-36 Δ mmHg	-37 Δ mmHg	-52 Δ mmHg	-11 Δ mmHg	-39 Δ/min.	-74 Δ/min.	-58 Δ/min.	-56 Δ/min.	-23 Δ/min.	Volume of Acid Secreted, Inhibition [6]: 70.8%; Volume of Gastric Juice, Inhibition [6]: 63.3%; Total Acidity ([6]; *p < 0.05): 61.4 ± 7.5 mEq/liter; Ulcer Index Inhibition [7]: 92.7%; Ulcer Index ([7]; ***p < 0.001): 4.4 ± 2.3 mm; Survival Time ([8]; 10 mg/kg i.p., KCN 2.5 mg/kg i.v., **p < 0.01, ***p < 0.001, survivors counted as 180 sec): 144.4 ± 17.6 s; Number of Survived Mice/Total Mice ([8]; 10 mg/kg i.p., KCN 2.5 mg/kg i.v., survived longer than 3 minutes): 5/8; Brain protection activity (in words) ([8]; Table 5): exhibited the activity higher that that of dihydroergotoxine methanesulfonate
CN1C[C@H](Cn2cncn2)C[C@@H]2c3cccc4[nH]cc(c34)C[C@H]21 [Example 6, 1-(6-Methylergolin-8β-ylmethyl)-1,2,4-triazole]	198.8 ± 32.2	-64 Δ mmHg	-67 Δ mmHg	-62 Δ mmHg	-65 Δ mmHg	-14 Δ mmHg	-8 Δ/min.	-30 Δ/min.	-33 Δ/min.	-21 Δ/min.	-10 Δ/min.	Duration of increase in spontaneous movement and sniffing ([2]; 10 mg/kg i.p.): more than 5 hours; Number of Rotating Movement over 60 min. ([2]; 10 mg/kg i.p.): 0; Spontaneous movement and sniffing ([2]; 10 mg/kg i.p.): Increase in spontaneous movement and sniffing occurred markedly
NNc1nncc2ccccc12 [Hydralazine Hydrochloride, reference compound]		-47 Δ mmHg	-52 Δ mmHg	-67 Δ mmHg	-41 Δ mmHg	-22 Δ mmHg	65 Δ/min.	66 Δ/min.	75 Δ/min.	64 Δ/min.	44 Δ/min.	Heart rate effect (in words) ([5]; Table 2): a marked increase in heart rate; Tachycardia (human): exhibited tachycardia in human as one of side-effects

— patent publication US4713457A, “Ergoline derivatives and acid addition salts thereof” (priority 1985, dated 1987)
